# Like-named read-outs stand apart in the source and are kept apart here. Residues, ends and D or L forms follow the SMILES beside them.
# Experiments:
# GPR15 = target: T1, GPR15 (Homo sapiens, UniProt P49685); assay: cAMP inhibition (Gi/o), HTRF with forskolin; type: cell-based; settings: mean
# T1 construct: hIL-2Ra signal peptide (N); expressed in transfected cells
# T1 sequence (P49685 2-360 limits assumed): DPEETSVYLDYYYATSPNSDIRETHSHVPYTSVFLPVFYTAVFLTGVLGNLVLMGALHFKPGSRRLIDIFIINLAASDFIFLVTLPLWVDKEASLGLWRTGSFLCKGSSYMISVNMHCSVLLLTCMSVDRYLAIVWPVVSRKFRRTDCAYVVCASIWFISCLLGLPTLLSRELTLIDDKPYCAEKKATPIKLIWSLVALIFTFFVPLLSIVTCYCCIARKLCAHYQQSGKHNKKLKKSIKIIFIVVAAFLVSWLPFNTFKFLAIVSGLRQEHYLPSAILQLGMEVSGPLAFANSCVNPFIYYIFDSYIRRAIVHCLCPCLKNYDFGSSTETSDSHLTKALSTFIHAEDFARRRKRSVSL
# Experimental: Peptide-dependent second messenger responses were measured using commercially available HTRF-based IP1 and cAMP kits (Cisbio) as described previously ([Nørskov-Lauritsen et al., 2014]). Receptor expression was induced for 48 hr with 0.1 μg/ml doxycycline in 10 cm dishes. For IP1 measurements (to measure Gq/11), 2,500 cells/well were mixed with ligands in triplicate wells in low volume white 384-well plates at 37°C for 30 min. For cAMP assays, 2,500 cells/well were added in triplicate wells in white 384-well plates in the absence or presence of 3 μM forskolin (to measure Gs and Gi/o activation respectively). 100 μM IBMX was included to prevent cAMP degradation during 30 min stimulation on a plate shaker at room temperature. For both assays, HTRF was measured using an EnVision 2104 Multimode plate reader (PerkinElmer).
# HA-OGR1 (GPR68) = target: T2, HA-OGR1 (GPR68) (Homo sapiens, UniProt Q15743); assay: Ca2+ mobilization assay (Fluo-4); type: cell-based; settings: mean
# T2 construct: HA; expressed in transfected cells
# T2 sequence (Q15743 whole entry): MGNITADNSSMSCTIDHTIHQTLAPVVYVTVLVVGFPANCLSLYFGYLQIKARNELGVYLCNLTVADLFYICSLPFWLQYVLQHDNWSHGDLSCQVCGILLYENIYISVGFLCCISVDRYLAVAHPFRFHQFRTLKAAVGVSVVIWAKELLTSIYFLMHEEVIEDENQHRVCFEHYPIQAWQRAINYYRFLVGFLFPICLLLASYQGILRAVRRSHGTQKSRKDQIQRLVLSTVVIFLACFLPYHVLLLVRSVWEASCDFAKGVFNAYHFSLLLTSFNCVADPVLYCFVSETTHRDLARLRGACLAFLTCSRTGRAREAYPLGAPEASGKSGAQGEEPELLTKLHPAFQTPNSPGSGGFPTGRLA
# Experimental: Peptide-dependent Ca^2+ mobilization responses were measured in HEK293 stable cell lines (HA-OGR1 (GPR68) and vector pcDNA) ([Saxena et al., 2012]) that were seeded in 96-well plates (1 × 10^5 cells/well) and cultured at 37°C with 5% CO2 to near confluence in DMEM with 10% FBS (Corning). Six hours prior to assay, medium was changed to pH 8.0 or pH 7.4 HAM’s F12 Nutrient Mixture (GIBCO) without FBS and transferred to a 37°C incubator without CO2. One hour prior to stimulation, cells were incubated in pH 8.0 or pH 7.4 HBSS with Ca^2+ and Mg^2+ (GIBCO), supplemented with 15 mM HEPES, 2 μM Fluo-4 AM (Invitrogen) and 1.5 mM probenecid ([…] to prevent Fluo-4 efflux) as described previously ([Pera et al., 2018]). Indicated peptides were pipetted using an automated system and emission signal was recorded at 525 nm after excitation at 485 nm using Flex Station III (Molecular Devices). Ca^2+ mobilization responses were determined by subtracting basal fluorescence from the net peak of agonist-induced fluorescence. Ionomycin (1 μM) was used to calculate the maximum Ca^2+ signal to normalize peptide-mediated responses.
# GPR68 = GPR68 (Homo sapiens, UniProt Q15743); assay: Real-time receptor internalization (TR-FRET), concentration-response; type: cell-based; parameters: hIL-2Ra signal peptide (N); expressed in transfected cells; settings: GPR68, mean
# GPR68, sequence (Q15743 2-365 limits assumed): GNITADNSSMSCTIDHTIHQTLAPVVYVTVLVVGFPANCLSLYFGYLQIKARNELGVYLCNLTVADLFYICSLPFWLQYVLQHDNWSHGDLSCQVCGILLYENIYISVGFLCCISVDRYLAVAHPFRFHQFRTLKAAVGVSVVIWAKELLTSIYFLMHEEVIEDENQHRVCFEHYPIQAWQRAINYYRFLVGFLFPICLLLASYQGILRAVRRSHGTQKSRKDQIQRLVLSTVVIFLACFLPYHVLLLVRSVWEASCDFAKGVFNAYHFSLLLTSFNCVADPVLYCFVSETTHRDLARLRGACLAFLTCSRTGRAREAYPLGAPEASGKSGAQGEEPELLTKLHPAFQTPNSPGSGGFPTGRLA
# Experimental: 48 hr prior to parallel assaying, SNAP-tagged oGPCR cells were plated (10,000 cells/well) in fibronectin-coated 384-well Epic biosensor microplates (Corning) and poly-D-lysine coated white 384-well plates (for internalization assays). SNAP- GLP-1 receptor was plated alongside orphan receptor cells as an internal assay control for internalization assays. Receptor-expression was induced with 0.1 μg/ml doxycycline.
# A TR-FRET real-time internalization assay was used to examine peptide-dependent changes in orphan receptor localization as described previously ([Foster and Bräuner-Osborne, 2018]). Surface-expressed SNAP-tagged receptors were labeled with a cell-impermeable luminescent terbium cryptate (100 nM SNAP Lumi4-Tb; Cisbio, France) for 1 hr at 37°C. Cells were washed to remove excess terbium and incubated with fluorescein-O-acetic acid (100 μM; Sigma Aldrich) for 5 min at 37°C. Peptides were added as for DMR assays, and internalization responses were recorded for 60 min at 37°C using an EnVision 2104 Multimode plate reader (PerkinElmer). 100 nM GLP-1 was used as a positive control for SNAP-GLP1R internalization. Real-time internalization responses were calculated based on TR-FRET (excitation 340 nm; emission 520 nm and 615 nm), and were expressed as the ratio between donor (terbium) and acceptor (fluorescein) emission. For peptide screening analysis (both DMR and internalization assays), we calculated the area under the curve from the real-time traces. As the magnitude of the responses was variable between orphan receptor targets, particularly for the SNAP-tag based internalization assay where the signal is dependent on receptor surface expression, the AUC values were normalized to their respective plate averages and expressed as fold change. Validation experiments for receptor internalization were performed as above. Internalization data was processed in MS-Excel and area under the curve was used to generate concentration-response curves using GraphPad Prism 7.0. Data represent mean ± standard error of the mean (SEM) from at least 3 biologically independent experiments.
# MRGPRX2 = target: T3, MRGPRX2 (Homo sapiens, UniProt Q96LB1); assay: β-arrestin recruitment (Tango), known peptide receptors; type: cell-based; settings: mean, n = 3
# T3 construct: host or cells: HTLA cells (HEK293-derived)
# T3 sequence (Q96LB1 1-330): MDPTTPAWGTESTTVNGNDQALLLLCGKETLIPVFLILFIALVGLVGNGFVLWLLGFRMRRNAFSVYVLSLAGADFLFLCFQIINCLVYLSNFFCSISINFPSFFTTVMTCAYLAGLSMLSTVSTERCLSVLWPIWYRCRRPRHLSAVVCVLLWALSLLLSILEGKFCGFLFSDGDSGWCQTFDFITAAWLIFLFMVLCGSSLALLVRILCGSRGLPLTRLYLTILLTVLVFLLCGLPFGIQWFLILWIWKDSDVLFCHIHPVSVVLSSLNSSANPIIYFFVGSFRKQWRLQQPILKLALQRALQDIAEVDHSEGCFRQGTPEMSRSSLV
# NPY5 = target: T4, NPY5 (Homo sapiens, UniProt Q15761); assay: as above; type: cell-based; settings: NPY5R, n = 3; for Comment, Tango (fold over basal): Emax and pEC50 n.d.; for Emax, Tango (fold over basal) / pEC50, Tango (fold over basal): mean
# T4 construct: host or cells: HTLA cells (HEK293-derived)
# T4 sequence (Q15761 1-445): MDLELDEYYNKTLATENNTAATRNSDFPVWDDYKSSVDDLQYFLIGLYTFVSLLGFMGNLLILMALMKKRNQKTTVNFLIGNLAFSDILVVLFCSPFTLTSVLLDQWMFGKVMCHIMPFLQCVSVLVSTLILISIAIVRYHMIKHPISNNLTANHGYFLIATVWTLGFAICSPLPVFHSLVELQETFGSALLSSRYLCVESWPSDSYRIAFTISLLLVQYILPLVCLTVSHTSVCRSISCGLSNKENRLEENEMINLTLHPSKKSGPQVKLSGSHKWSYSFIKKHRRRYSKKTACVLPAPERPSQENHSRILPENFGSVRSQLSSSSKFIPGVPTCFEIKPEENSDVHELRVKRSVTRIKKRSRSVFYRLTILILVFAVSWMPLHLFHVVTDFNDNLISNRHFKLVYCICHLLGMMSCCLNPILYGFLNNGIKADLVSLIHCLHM
# Experimental: (§1) The peptide library was additionally screened against 120 GPCR targets in parallel, including all available orphan receptors and 27 known class A peptide receptors using the Tango assay platform ([Kroeze et al., 2015]). Briefly, HTLA cells (a HEK293 cell line stably expressing a tTA-dependent luciferase reporter and a β-arrestin2-TEV fusion gene) were plated 10,000 cells/well in poly-L-lysine–coated clear-bottom white 384-well plates in DMEM supplemented with 10% FBS, 100 U/ml penicillin and 100 μg/ml streptomycin, 2 μg/ml puromycin and 100 μg/ml hygromycin B. 24 hr later, cells were transfected with Tango GPCR constructs using the calcium phosphate method ([Jordan et al., 1996]). The next day, culture medium was changed to DMEM + 1% dFBS and 10 μM peptides were added for overnight stimulation. Bright-Glo solution (Promega) was incubated for 15–20 min at room temperature, and luminescence was counted using a Trilux luminescence counter (Wallac).
# For subsequent peptide validation experiments using Tango assays, HTLA cells were transiently transfected in 10 cm dishes with the receptor of interest using polyethylenimine (PEI) ([Longo et al., 2013]). After 24 hr, 25,000 cells/well were plated in clear bottom, white-walled 384-well plates. Assays were performed as described above, with luminescence measured using an EnSpire 2300 Multimode plate reader (PerkinElmer). Luminescence counts were exported into Excel and were analyzed using GraphPad Prism 7.
# [1] = tested on: 120 GPCR targets, including all available orphan receptors and 27 known class A peptide receptors; assay: Peptide library screen, β-arrestin recruitment (Tango, fold change, 10 μM); type: cell-based, human; settings: for Active at: (activity in b-arrestin recruitment assays): Tango, receptor(s) at which the known library peptide was active, among its known GPCR target(s), validated pairings
# Experimental: as §1
compound,measurement,setting,value
CC(C)C[C@H](NC(=O)[C@H](C)NC(=O)CNC(=O)[C@@H]1CCCN1C(=O)[C@@H](NC(=O)[C@@H](NC(=O)[C@H](Cc1c[nH]c2ccccc12)NC(=O)[C@@H](N)CC(C)C)C(C)C)C(C)C)C(=O)N1CCC[C@H]1C(=O)N[C@@H](CCC(N)=O)C(=O)N[C@H](C(=O)O)C(C)C [64 resynthesized] (H-LWVVPGALPQV-OH),Emax,"GPR15; receptor GPR15, SEM and n (4), read-out: cAMP accumulation assays Emax (% FSK)",30.8%
CC[C@H](C)[C@H](NC(=O)[C@H](CCCNC(=N)N)NC(=O)[C@H](CC(=O)O)NC(=O)[C@H](CCSC)NC(=O)[C@@H]1CCCN1C(=O)[C@@H](NC(=O)CNC(=O)[C@H](Cc1ccccc1)NC(=O)[C@@H](N)CCCNC(=N)N)[C@@H](C)CC)C(=O)NCC(=O)N[C@@H](CCCNC(=N)N)C(=O)N[C@@H](CC(N)=O)C(=O)N[C@@H](CCCNC(=N)N)C(=O)N[C@@H](CC(C)C)C(=O)N[C@@H](CO)C(=O)N[C@@H](CC(N)=O)C(=O)N[C@@H](CO)C(=O)N[C@@H](CCCNC(=N)N)C(=O)NCC(=O)O [128 resynthesized] (H-RFGIPMDRIGRNRLSNSRG-OH),Emax,"HA-OGR1 (GPR68); receptor GPR68, SEM and n (3), read-out: Calcium mobilization assays Emax (% ionomycin)",34.5%
CC(C)C[C@H](NC(=O)[C@H](C)NC(=O)CNC(=O)[C@@H]1CCCN1C(=O)[C@@H](NC(=O)[C@@H](NC(=O)[C@H](Cc1c[nH]c2ccccc12)NC(=O)[C@@H](N)CC(C)C)C(C)C)C(C)C)C(=O)N1CCC[C@H]1C(=O)N[C@@H](CCC(N)=O)C(=O)N[C@H](C(=O)O)C(C)C [GPR15L_(47-57)] (H-LWVVPGALPQV-OH),Emax,"GPR15; GPR15, SEM and n, read-out: Emax, cAMP (% FSK)",29.2%
CC[C@H](C)[C@H](NC(=O)[C@H](CCCNC(=N)N)NC(=O)[C@H](CC(=O)O)NC(=O)[C@H](CCSC)NC(=O)[C@@H]1CCCN1C(=O)[C@@H](NC(=O)CNC(=O)[C@H](Cc1ccccc1)NC(=O)[C@@H](N)CCCNC(=N)N)[C@@H](C)CC)C(=O)NCC(=O)N[C@@H](CCCNC(=N)N)C(=O)N[C@@H](CC(N)=O)C(=O)N[C@@H](CCCNC(=N)N)C(=O)N[C@@H](CC(C)C)C(=O)N[C@@H](CO)C(=O)N[C@@H](CC(N)=O)C(=O)N[C@@H](CO)C(=O)N[C@@H](CCCNC(=N)N)C(=O)NCC(=O)O [Osteocrin_(33-50)] (H-RFGIPMDRIGRNRLSNSRG-OH),"pEC50, Internalization (AUC)",GPR68; SEM and n,Response >1uM
same,Emax,"HA-OGR1 (GPR68); GPR68, data from resynthesized peptide, SEM and n, read-out: Emax, Ca2+ mobilization (% iono)",34.5%
ATVRNEDKWKPLNNPRNRDLFFRRLQAYFK [Peptide 175],"Emax, Tango (fold over basal)",MRGPRX2,3.5 fold over basal
same,"pEC50, Tango (fold over basal)",MRGPRX2,4.67
FLWKDLQRVR [Peptide 56],"Emax, Tango (fold over basal)",MRGPRX2,4.9 fold over basal
same,"pEC50, Tango (fold over basal)",MRGPRX2,4.90
IQAQLKELRY [Peptide 49],"Comment, Tango (fold over basal)",NPY5,Response >1uM
MPHSFANLPLRF [Peptide 86],Active at: (activity in b-arrestin recruitment assays),[1],NPFF1
same,"Emax, Tango (fold over basal)",NPY5,10.4 fold over basal
same,"pEC50, Tango (fold over basal)",NPY5,5.44
QMAVKKYLAAVL [Peptide 84],"Emax, Tango (fold over basal)",MRGPRX2,7.0 fold over basal
same,"pEC50, Tango (fold over basal)",MRGPRX2,5.02
RFGIPMDRIGRNRLSNSR [Peptide 128.1],Internalization assays Emax (AUC),"GPR68; real-time internalization, SEM and n (3)",2.0
SQAFLFQPQRF [Peptide 75],Active at: (activity in b-arrestin recruitment assays),[1],NPFF1
same,"Comment, Tango (fold over basal)",NPY5,Response >1uM
SRTHRHSMEIRTPDINPAWYASRGIRPVGRF [Peptide 183],Active at: (activity in b-arrestin recruitment assays),[1],PrRP
same,Confirmation of known target in Tango,"[1]; repeat hitters of the peptide library screen, the value names the known receptor(s) confirmed in the β-arrestin recruitment (Tango) screen",PrRP
same,"Emax, Tango (fold over basal)",NPY5,6.6 fold over basal
same,"pEC50, Tango (fold over basal)",NPY5,5.60
VPNLPGRF [Peptide 36],"Comment, Tango (fold over basal)",NPY5,Response >1uM
WYKHVASPRYHTVGRAAGLLMGL [Peptide 151],"Emax, Tango (fold over basal)",MRGPRX2,3.4 fold over basal
same,"pEC50, Tango (fold over basal)",MRGPRX2,4.73
same,Active at: (activity in b-arrestin recruitment assays),[1],"NPBW1, NPBW2"

# Reference: paper PMC6838683, “Discovery of Human Signaling Systems: Pairing Peptides to G Protein-Coupled Receptors” (Cell, 2019)
